Counter-ions that a name gives are not always drawn. Like-named read-outs stand apart in the source and are kept apart here.
Assays:
[1] = test system: female mosquitoes; assay: whole plant or invertebrate; details: 2 h; for mortality at 200 µg/mL: read-out: % mortality with 0.2 mg/ml; for mortality at 2000 µg/mL: read-out: % mortality with 2 mg/ml
[2] = test system: larvae; assay: larvicidal activity assay; type: in vivo; details: for pest or weed control at 0.25 %: read-out: % Lethality with 0.25% compound conc.; for pest or weed control at 100 ppm: read-out: % Lethality at 100 ppm
Protocol: A 6-well plate (Corning Life Sciences, Tewksbury, Mass.) is used to test a compound's larvicidal activity. […] After a 24 hour exposure, the number of dead larvae are counted and recorded.
The results are presented in Table 17 as % lethality (the number of dead larvae divided by the total number of larvae).

[3] = test system: cpA neurons; assay: extracellular single-sensillum electrophysiology: activation of cpA neuronal activity; details: for Class: Table 6, single compounds, increase over baseline cpA neuronal activity; for Comp B Class / Comp A Class: Table 9; for Comp B Class: component B tested individually; for Class B (activator class of the individual component): Table 15, single component alone, Mod Actv; for Comp A Class: component A tested individually
[4] = test system: bed bugs (Cimex lectularius); assay: bed bug repellency assay; type: in vivo; details: compound or combination on filter paper harborage, ten bed bugs
Procedure, shortened: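 Ten Cimex lectularius per talc-lined petri dish chose between folded filter-paper harborages treated with isopropyl alcohol alone or compound in isopropyl alcohol […], dried before use. Bugs moved freely 5 min; occupancy beneath each tent recorded, with a solvent-only pairing as control.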

[5] = test system: bed bugs; assay: bed bug luring assay; type: in vivo; details: cottonball with 100 microliters solution, total 100 mg compound(s), 10 bed bugs, overnight
Protocol: Assays were conducted to measure the ability of compounds and compound combinations to attract bed bugs. A testing arena habitat comprising a small plastic container was placed inside of a larger, secondary container. The top half inch was removed from two bathroom sized solo cups and each cup was placed on opposite sides of the testing arena habitat, one inch away from the wall. Each outer part of the cup was textured using sandpaper, as bed bugs cannot climb smooth surfaces. A paper towel was used to line the floor of the testing arena habitat. The top, removed portion of one of the solo cups was placed mouth side down in the center of the arena. In one of the cups, a cottonball was placed and treated with 100 microliters of compound or compound combination solution [comprising a total of 100 mg of compound(s).] 10 bed bugs were placed within the center cut off cup top and the testing arena habitat was covered and placed within a dark, climate controlled room overnight. The next day, the number of bed bugs that crawled into the baited cup were recorded and the % attractancy was calculated as the percentage of bugs that crawled into the baited cup as compared to the total number of bed bugs. In the Table, “Att” refers to attractancy and “Cmpd” refers to compound.

[6] = test system: cpA neurons; assay: extracellular single-sensillum electrophysiology: inhibition of CO2-responsive (cpA) neuronal activity; details: for Class: Table 10, single compounds, percent reduction in cpA activity compared to baseline; for Class (inhibitor class of the individual component): Inh = inhibitor
[7] = test system: female mosquitoes; details: single compound, female mosquitoes, two hours; for % mortality with 0.2 mg/ml: 0.2 mg/ml on filter paper; for % mortality with 2 mg/ml: 2 mg/ml on filter paper
[8] = test system: cpB and cpC neurons; assay: extracellular single-sensillum electrophysiology: beta activators; type: in vivo, Aedes aegypti; details: for beta activator (stimulates cpB and cpC neuronal activity): single compound; for Class A (beta activator, individual component): Table 15, single component alone; for Class A (beta activator, individual component) / Class (beta activator, individual component): Beta Actv
Excerpt: Three types of CO2-responsive neurons reside in the maxillary palp of mosquitoes. These include cpA, cpB and cpC neurons. […] These neurons produce spikes with much lower amplitude than those produced by cpA neurons. Although the activity from cpB and cpC neurons cannot easily be distinguished from one another, their collective activity can be distinguished from cpA neurons due to their characteristic spikes. This is useful in the identification of compounds and compositions that only activate or inhibit cpB and cpC neurons or compounds and compositions that activate or inhibit both.
Carbon dioxide receptor neurons are housed within the basiconic sensilla of the mosquito maxillary palp. While activity from cpA neurons produces the largest amplitude spike, cpB and cpC neurons present in this region are also responsive to skin odors. Activity from these neurons can also be detected through the electrophysiological methods described in Example 1.
Although the activity from cpB and cpC neurons cannot easily be distinguished from one another, their collective activity can be distinguished from cpA neurons due to their production of spikes with much lower amplitude than those produced by cpA neurons.

[9] = 0.25% compound, 24 hour exposure, dead larvae / total larvae
[10] = 100 ppm compound, 24 hour exposure, dead larvae / total larvae
[11] = Table 16, single component alone
[12] = Table 13, single component alone

Compound | mortality at 200 µg/mL [1] [%] | mortality at 2000 µg/mL [1] [%] | pest or weed control at 0.25 % [2, 9] [%] | pest or weed control at 100 ppm [2, 10] [%] | Class [3] | % Rep (bed bug repellency) [4] [%] | Class [6] | Comp B Class [3] | beta activator (stimulates cpB and cpC neuronal activity) [8] | other results
COc1cnccn1 [OLI0003, 2-methoxypyrazine] | 0 | 0 | 100 | 0 | Strong Activator (strong activators yield an increase in activity that is >60 spk/sec over baseline neuronal activity) | 22 |  |  |  | % Att (bed bug attractancy) [5]: 30%
COc1nccnc1C [OLI0070, 2-methoxy-3-methylpyrazine] | 0 | 0 | 100 | 0 |  |  | Strong Inhibitor (strong inhibitors (reducing activity >60%)) |  |  | % Att (bed bug attractancy) [5]: 10%
N#C/C=C/c1ccccc1 [OLI0020, cinnamyl nitrile] |  |  |  |  | Moderate Activator (Moderate activators yield an increase in neuronal activity that is between 40 and 60 spk/sec over baseline neuronal activity) | 56 |  | Mod |  | % mortality with 0.2 mg/ml [7]: 0%; % mortality with 2 mg/ml [7]: 100%; % Lethality with 0.25% compound conc. [2, 9]: 100% lethal; % Lethality at 100 ppm [2, 10]: 100% lethal; Class B (activator class of the individual component) [3]: Mod
CCCOC=O [OLI0063, propyl formate] | 0 | 0 |  |  | Mild Activator (mild activators yield an increase in neuronal activity that is between 20 and 40 spk/sec over baseline neuronal activity) |  |  | Mild |  | pest or weed control at 100 ppm ([2]; 24 h): 0%; pest or weed control at 0.25 % ([2]; 24 h): 0%; % Att (bed bug attractancy) [5]: 30%
C/C=C(\C)C(=O)OC(CC)CCCCC (stereo not drawn) [OLI0079, 1-ethylhexyl tiglate] | 0 | 15 | 100 | 0 |  | 49 | Mild Inhibitor (mild inhibitors (reducing activity by 20-40%)) |  | beta activators | inhibitor class of single compound ([6]; single compound): mild cpA inhibitors
CCCC1CCC(=O)O1 (stereo not drawn) [OLI0024, gamma-heptalactone] |  |  |  |  | Moderate Activator (Moderate activators yield an increase in neuronal activity that is between 40 and 60 spk/sec over baseline neuronal activity) | 71 |  | Mod |  | % mortality with 0.2 mg/ml [7]: 0%; % mortality with 2 mg/ml [7]: 0%; % Lethality with 0.25% compound conc. [2, 9]: 100% lethal; % Lethality at 100 ppm [2, 10]: 0% lethal; Comp A Class [3]: Mod; Class B (activator class of the individual component) [3]: Mod
CC/C=C\CCOC=O [OLI0096, cis-3-hexenyl formate] | 0 | 0 | 30 | 0 |  | 6 |  |  | beta activators | Class A (beta activator, individual component) [8]: Beta
CC/C=C\CCCCO [OLI0084, cis-5-octen-1-ol] | 0 | 95 | 100 | 0 |  | 82 | Mild Inhibitor (mild inhibitors (reducing activity by 20-40%)) |  | beta activator | Class (beta activator, individual component) [8, 11]: Beta; Class (inhibitor class of the individual component) [6, 12]: Mild; Class (inhibitor class of the individual component) [6, 11]: Mild
CC/C=C/CC(=O)OC [OLI0100, methyl (E)-hex-3-enoate] | 0 | 0 | 100 | 0 |  | 17 |  | Beta | beta activators | Class (beta activator, individual component) [8, 12]: Beta; Class A (beta activator, individual component) [8]: Beta; Class (beta activator, individual component) [8, 11]: Beta
CC(C)CCOC=O [OLI0098, isoamyl formate] |  |  |  |  |  |  |  |  | beta activators | Class A (beta activator, individual component) [8]: Beta
O=CCCc1ccccc1 [OLI0029, phenylpropylaldehyde] |  |  |  |  | Moderate Activator (Moderate activators yield an increase in neuronal activity that is between 40 and 60 spk/sec over baseline neuronal activity) | 100 |  | Mod |  | % mortality with 0.2 mg/ml [7]: 0%; % mortality with 2 mg/ml [7]: 15%; % Lethality with 0.25% compound conc. [2, 9]: 100% lethal; % Lethality at 100 ppm [2, 10]: 0% lethal; Comp A Class [3]: Mod; Class B (activator class of the individual component) [3]: Mod
furfurylpentenoate [OLI0088] |  |  |  |  |  |  | Mild Inhibitor (mild inhibitors (reducing activity by 20-40%)) |  |  | Class (beta activator, individual component) [8, 11]: Beta; Class (inhibitor class of the individual component) [6, 11]: Mod
CC(=O)/C=C/C=C(C)C [OLI0059] |  |  |  |  | Mild Activator (mild activators yield an increase in neuronal activity that is between 20 and 40 spk/sec over baseline neuronal activity) | 87 |  |  |  | % mortality with 0.2 mg/ml [7]: 0%; % mortality with 2 mg/ml [7]: 0%; % Lethality with 0.25% compound conc. [2, 9]: 100% lethal; % Lethality at 100 ppm [2, 10]: 58% lethal
CCCCC(=O)OCc1ccco1 [OLI0074, furfurylpentanoate] | 0 | 0 | 100 | 0 |  | 100 | Moderate Inhibitor (moderate inhibitors (reducing activity by 40-60%)) |  | beta activator | Class (beta activator, individual component) [8, 11]: Beta; Class (inhibitor class of the individual component) [6, 12]: Mod; Class (inhibitor class of the individual component) [6, 11]: Mod
